Test results reported in patent publication US6849598B1, “Therapeutic compositions comprising bactericidal/permeability-increasing (BPI) protein products” (XOMA, priority 1995, dated 2005).
Converted amounts (≈) assume the structure as drawn. Read-outs that look alike come from different tables or passages of the source.

Key:
[1] = system: A. baumannii; assay: Antibiotic susceptibility (MIC, Sensititre Trays) with rBPI21 poloxamer formulations; assay type: cell-based; details: for MIC: Acinetobacter baumannii, read-out: Minimum Inhibitory Concentration
Method: (§1) The effect of therapeutic compositions of rBPI21 formulated with poloxamer, with or without EDTA, was evaluated on the antibiotic susceptibility of the multiple drug resistant A. baumannii, S. pneumoniae, E. faecium and P. aeruginosa organisms of Example 5. Therapeutic compositions were prepared containing 2 mg/mL rBPI21, (5 mM sodium citrate, 150 mM NaCl) with a 0.2% (w/v) concentration of PLURONIC F68, P103, P104, P105 or P123. The effect on the antibiotic susceptibility of the organisms was determined in Mueller-Hinton Broth plus Cations (CSMHB, Remel), or 40% pooled human serum in CSMHB (Sigma, St. Louis, Mo.), as follows.
(§2) Isolated colonies of the organism from overnight cultures were suspended in Microscan® Inoculum Water to a concentration equivalent to a 0.5 McFarland Standard (approximately 1×10^8 CFU/ml), determined using a Microscan® turbidimeter. Aliquots were transferred to either CSMHB or 40% pooled human serum in CSMHB. Each tube contained either a final concentration of 16 μg/mL rBPI21 or an equivalent volume of control buffer. Minimal inhibitory concentrations (MIC) for each antibiotic tested, i.e. the lowest concentration of antibiotic which inhibits visible growth, were determined using gram-negative (MB and MC) and gram-positive (MA) Sensititre Trays (Radiometer America, Westlake, Ohio), which allow for the rapid and simultaneous survey of a broad spectrum of standard antibiotics. Any other antimicrobial panel systems known in the art, such as the Microscan® (Dade Microscan, Sacramento, Calif.), Pasco (DIFCO, Detroit, Mich.) and Alamar (Alamar, Sacramento, Calif.) systems, may alternatively be used to assay for antibiotic susceptibility.
(§3) Tables 12-15 below display a summary of the results of the antibiotic screening panels, reported for each strain tested as the MIC of the tested antibiotics in the presence of the indicated rBPI21 therapeutic composition. The antibiotic susceptibility standards (interpretation of an MIC as clinically resistant (R), intermediate (I) or susceptible (S) according to NCCLS standards) applicable to the organism tested appear in superscript next to the MIC.

[2] = system: P. aeruginosa; assay: as above; assay type: cell-based; details: for MIC: Pseudomonas aeruginosa, read-out: Minimum Inhibitory Concentration
Method: as §1, §2, §3

[3] = CSMHB, 16 μg/mL rBPI21 with F68
[4] = CSMHB, 16 μg/mL rBPI21 with P103
[5] = CSMHB, 16 μg/mL rBPI21 with P104
[6] = CSMHB, 16 μg/mL rBPI21 with P105
[7] = CSMHB, 16 μg/mL rBPI21 with P123
[8] = Serum, 16 μg/mL rBPI21 with F68
[9] = Serum, 16 μg/mL rBPI21 with P103
[10] = Serum, 16 μg/mL rBPI21 with P104
[11] = Serum, 16 μg/mL rBPI21 with P105
[12] = Serum, 16 μg/mL rBPI21 with P123

SMILES: CC(C)(O/N=C(\C(=O)N[C@@H]1C(=O)N2C(C(=O)[O-])=C(C[n+]3ccccc3)CS[C@H]12)c1csc(N)n1)C(=O)O [Ceftazidime]
- MIC [1, 3]: 32 µg/mL (≈ 58.5 µM)
- MIC [1, 4]: < 4 µg/mL
- MIC [1, 5]: < 4 µg/mL
- MIC [1, 6]: < 4 µg/mL
- MIC [1, 7]: < 4 µg/mL
- MIC ([1]; CSMHB, Control (no BPI)): 16 µg/mL (≈ 29.3 µM)
- MIC [1, 8]: 32 µg/mL (≈ 58.5 µM)
- MIC [1, 9]: 16 µg/mL (≈ 29.3 µM)
- MIC [1, 10]: 16 µg/mL (≈ 29.3 µM)
- MIC [1, 11]: 16 µg/mL (≈ 29.3 µM)
- MIC [1, 12]: 16 µg/mL (≈ 29.3 µM)
- MIC ([1]; Serum, Control (no BPI)): > 32 µg/mL
- susceptibility interpretation of MIC (superscript) [1, 3]: R
- susceptibility interpretation of MIC (superscript) [1, 4]: S
- susceptibility interpretation of MIC (superscript) [1, 5]: S
- susceptibility interpretation of MIC (superscript) [1, 6]: S
- susceptibility interpretation of MIC (superscript) [1, 7]: S
- susceptibility interpretation of MIC (superscript) ([1]; CSMHB, Control (no BPI)): I
- susceptibility interpretation of MIC (superscript) [1, 8]: R
- susceptibility interpretation of MIC (superscript) [1, 9]: I
- susceptibility interpretation of MIC (superscript) [1, 10]: I
- susceptibility interpretation of MIC (superscript) [1, 11]: I
- susceptibility interpretation of MIC (superscript) [1, 12]: I
- susceptibility interpretation of MIC (superscript) ([1]; Serum, Control (no BPI)): R

SMILES: CO/N=C(\C(=O)N[C@@H]1C(=O)N2C(C(=O)O)=CCS[C@H]12)c1csc(N)n1 [Ceftizoxime]
- susceptibility interpretation of MIC (superscript) [2, 3]: I
- susceptibility interpretation of MIC (superscript) [2, 4]: I
- susceptibility interpretation of MIC (superscript) [2, 5]: R
- susceptibility interpretation of MIC (superscript) [2, 6]: I
- susceptibility interpretation of MIC (superscript) [2, 7]: R
- susceptibility interpretation of MIC (superscript) ([2]; CSMHB, Control (no BPI)): R
- MIC [2, 3]: 32 µg/mL (≈ 83.5 µM)
- MIC [2, 4]: 16 µg/mL (≈ 41.7 µM)
- MIC [2, 5]: 128 µg/mL (≈ 334 µM)
- MIC [2, 6]: 32 µg/mL (≈ 83.5 µM)
- MIC [2, 7]: 128 µg/mL (≈ 334 µM)
- MIC ([2]; CSMHB, Control (no BPI)): > 128 µg/mL
- MIC [2, 8]: > 128 µg/mL
- MIC [2, 9]: 16 µg/mL (≈ 41.7 µM)
- MIC [2, 10]: 128 µg/mL (≈ 334 µM)
- MIC [2, 11]: 16 µg/mL (≈ 41.7 µM)
- MIC [2, 12]: 16 µg/mL (≈ 41.7 µM)
- MIC ([2]; Serum, Control (no BPI)): 128 µg/mL (≈ 334 µM)
- susceptibility interpretation of MIC (superscript) [2, 8]: R
- susceptibility interpretation of MIC (superscript) [2, 9]: I
- susceptibility interpretation of MIC (superscript) [2, 10]: R
- susceptibility interpretation of MIC (superscript) [2, 11]: I
- susceptibility interpretation of MIC (superscript) [2, 12]: I
- susceptibility interpretation of MIC (superscript) ([2]; Serum, Control (no BPI)): R

SMILES: CO/N=C(\C(=O)N[C@@H]1C(=O)N2C(C(=O)O)=C(CSc3nc(=O)c(=O)[nH]n3C)CS[C@H]12)c1csc(N)n1 [Ceftriaxone]
- MIC [1, 3]: > 128 µg/mL
- MIC [1, 4]: < 1 µg/mL
- MIC [1, 5]: < 1 µg/mL
- MIC [1, 6]: < 1 µg/mL
- MIC [1, 7]: < 1 µg/mL
- MIC ([1]; CSMHB, Control (no BPI)): 128 µg/mL (≈ 231 µM)
- MIC [1, 8]: > 128 µg/mL
- MIC [1, 9]: > 128 µg/mL
- MIC [1, 10]: > 128 µg/mL
- MIC [1, 11]: > 128 µg/mL
- MIC [1, 12]: > 128 µg/mL
- MIC ([1]; Serum, Control (no BPI)): > 128 µg/mL
- susceptibility interpretation of MIC (superscript) [1, 3]: R
- susceptibility interpretation of MIC (superscript) [1, 4]: S
- susceptibility interpretation of MIC (superscript) [1, 5]: S
- susceptibility interpretation of MIC (superscript) [1, 6]: S
- susceptibility interpretation of MIC (superscript) [1, 7]: S
- susceptibility interpretation of MIC (superscript) ([1]; CSMHB, Control (no BPI)): R
- susceptibility interpretation of MIC (superscript) [1, 8]: R
- susceptibility interpretation of MIC (superscript) [1, 9]: R
- susceptibility interpretation of MIC (superscript) [1, 10]: R
- susceptibility interpretation of MIC (superscript) [1, 11]: R
- susceptibility interpretation of MIC (superscript) [1, 12]: R
- susceptibility interpretation of MIC (superscript) ([1]; Serum, Control (no BPI)): R
- susceptibility interpretation of MIC (superscript) [2, 3]: I
- susceptibility interpretation of MIC (superscript) [2, 4]: S
- susceptibility interpretation of MIC (superscript) [2, 5]: R
- susceptibility interpretation of MIC (superscript) [2, 6]: I
- susceptibility interpretation of MIC (superscript) [2, 7]: R
- susceptibility interpretation of MIC (superscript) ([2]; CSMHB, Control (no BPI)): R
- MIC [2, 3]: 32 µg/mL (≈ 57.7 µM)
- MIC [2, 4]: 8 µg/mL (≈ 14.4 µM)
- MIC [2, 5]: 128 µg/mL (≈ 231 µM)
- MIC [2, 6]: 32 µg/mL (≈ 57.7 µM)
- MIC [2, 7]: 128 µg/mL (≈ 231 µM)
- MIC ([2]; CSMHB, Control (no BPI)): > 128 µg/mL
- MIC [2, 8]: > 128 µg/mL
- MIC [2, 9]: 16 µg/mL (≈ 28.9 µM)
- MIC [2, 10]: 128 µg/mL (≈ 231 µM)
- MIC [2, 11]: 16 µg/mL (≈ 28.9 µM)
- MIC [2, 12]: 32 µg/mL (≈ 57.7 µM)
- MIC ([2]; Serum, Control (no BPI)): 128 µg/mL (≈ 231 µM)
- susceptibility interpretation of MIC (superscript) [2, 8]: R
- susceptibility interpretation of MIC (superscript) [2, 9]: I
- susceptibility interpretation of MIC (superscript) [2, 10]: R
- susceptibility interpretation of MIC (superscript) [2, 11]: I
- susceptibility interpretation of MIC (superscript) [2, 12]: I
- susceptibility interpretation of MIC (superscript) ([2]; Serum, Control (no BPI)): R
